Series [1] deals with Mycobacterium tuberculosis. Nature of the series: Antitubercular activity against Mycobacterium tuberculosis H37Rv ATCC 27294 treated for 10 days under hypoxic condition followed by 28 hrs of normoxic recovery. The class given is functional.
Another series in a line: in vitro. The following applies: monkey, Vero cells.
Series [2] deals with Mycobacterium tuberculosis. Nature of the series: microbe, parasite or virus in culture. Format: functional. The following applies: H37Rv ATCC 27294, 168 h.
Description: Antitubercular activity against Mycobacterium tuberculosis H37Rv ATCC 27294 after 7 days under normoxic condition by microplate Alamar blue assay
A further series deals with Mycobacterium avium. Nature of the series: Antimycobacterial activity against Mycobacterium avium ATCC 15769 after 7 days under normoxic condition by microplate Alamar blue assay. The class given is functional. As to conditions: ATCC 15769, 168 h. In general terms: Resazurin is reduced to fluorescent resorufin, in cell work by metabolically active cells.
In another series the test system is Staphylococcus aureus. Nature of the series: Antibacterial activity against Staphylococcus aureus ATCC 29213 after 16 to 20 hrs. Format: functional.
For a further series, the system named is Mycobacteroides chelonae. The series is described as follows: Antimycobacterial activity against Mycobacterium chelonae ATCC 35752 after 7 days under normoxic condition by microplate Alamar blue assay. The class given is functional. The following applies: ATCC 35752, 168 h.
For the next series, the system named is Mycobacterium kansasii. The series is described as follows: Antimycobacterial activity against Mycobacterium kansasii ATCC 12478 after 7 days under normoxic condition by microplate Alamar blue assay. The following applies: ATCC 12478, 168 h. Format: functional.
The subject of series [3] is Mycobacteroides abscessus. The series is described as follows: Antimycobacterial activity against Mycobacterium abscessus ATCC 19977 after 7 days under normoxic condition by microplate Alamar blue assay. The class given is functional. As to conditions: ATCC 19977, 168 h.
For a further series, the system named is Candida albicans. The series is described as follows: Antifungal activity against Candida albicans ATCC 90028 after 36 to 48 hrs. The class given is functional.
The next series has as its system Mycobacterium marinum. Nature of the series: Antimycobacterial activity against Mycobacterium marinum ATCC 927 after 7 days under normoxic condition by microplate Alamar blue assay. The following applies: ATCC 927, 168 h. The class given is functional.
A further series has as its system Escherichia coli. The series is described as follows: Antibacterial activity against Escherichia coli ATCC 25922 after 16 to 20 hrs. Format: functional.
The subject of series [4] is Mycolicibacterium smegmatis. The series is described as follows: Antimycobacterial activity against Mycobacterium smegmatis ATCC MC2155 after 7 days under normoxic condition by microplate Alamar blue assay. Format: functional. The following applies: str. MC2 155, 168 h.

≈ marks a conversion by molar mass, not a printed value.

Description for in vitro: Selectivity index, ratio of IC50 for African green monkey Vero cells to MIC90 for Mycobacterium tuberculosis H37Rv ATCC 27294 under normoxic condition

As for `COc1ccc(/C=C/C(=O)c2cccc(Br)c2)cc1`, the MIC90 in series [1] is 8.2 µM (≈ 2.6 µg/mL); in series [2] it was 8.54 µM (≈ 2.71 µg/mL); in the series on Mycobacterium avium it was 9.82 µM (≈ 3.11 µg/mL); in the series with Staphylococcus aureus, more than 10 µM; in the series with Mycobacteroides chelonae, more than 10 µM; against Mycobacterium kansasii, 9.21 µM (≈ 2.92 µg/mL). For the same compound, the MIC90 (in series [3]; with Candida albicans; in the series with Mycobacterium marinum; in the series on Escherichia coli; in series [4]) was more than 10 µM each time. For the same compound, the selectivity ratio in “in vitro” was determined as 11.

Values taken from ChEMBL document CHEMBL4118066, “QSAR-driven design, synthesis and discovery of potent chalcone derivatives with antitubercular activity” (Eur J Med Chem, 2017).
